# Assay results published in US20080269060A1, “Herbicidal Formulation” (priority 2004, published 2008).
# Where two headings read alike, the source gives them in different places.
# Experiments:
# [1] = Storage stability of 1% mesotrione / isoxaflutole salt mixtures, 8 weeks at +45° C. vs −18° C.; type: physicochemical; set-up: Start: unit not given here; conditions: for 45° C. / % decomposition: 8 weeks at 45° C.; for Start: held at −18° C. 8 weeks
# Description: Millbase preparations of mesotrione and isoxaflutole were made using the following method:
# The sample is placed in a round bottomed flask (˜140 mls) and mixed at 150 rpm for 15 minutes until homogeneous. An equal volume of glass beads is added to the flask (0.8-1.0 mm diameter) and the sample is milled at 650 rpm of 60 minutes. The particle size was checked. Further milling of the sample continued (60 minutes for mesotrione and 150 minutes for isoxaflutole). The particle size was checked again and all particles met the specification of 5 microns (D(4,3) volume weighted mean diameter).
# The samples were extracted under vacuum through a sieve to disengage the beads from the millbases. The two millbases shown below were checked for AI content and used in the preparation of the salt mixtures. The final mixtures (see below) were then placed on storage at −18° C. (controlled initial sample) and +45° C. for 8 weeks. Analysis was then carried out using validated methods. The salts used were: glyphosate potassium aqueous solution; diquat dibromide aqueous solution; paraquat dichloride aqueous solution.
# Analytical Results: storage time was 8 weeks; sample denoted as “start” was held at −18° C. for the same period.
# [2] = water, cited from earlier work
# [3] = Amount of mesotrione in solution by UV-visible spectrophotometry in aqueous electrolyte; type: physicochemical; conditions: pH approximately 5
# Description: Eight aqueous millbase formulations were made comprising mesotrione millbase (12 g/L or 10,000 approximately) and varying amounts of glyphosate-potassium, ammonium sulphate, and sodium chloride. All samples were held at a pH of approximately 5 by using phosphoric acid for adjustment. The amount of mesotrione in solution was determined using UV-visible spectrophotometry, since the aqueous solubility of mesotrione is related to the expected rate of decomposition of this active ingredient in such systems.
# [4] = 1% active and diquat pH ~4, Salt % 7.50 (as diquat anion)
# [5] = 1% active and diquat pH ~4, Salt % 15.00 (as diquat anion)
# [6] = 1% active and diquat pH ~4, Salt % 22.50 (as diquat anion)
# [7] = 1% active and paraquat pH ~4, Salt % 10.00 (as paraquat anion)
# [8] = 1% active and paraquat pH ~4, Salt % 20.00 (as paraquat anion)
# [9] = 1% active and paraquat pH ~4, Salt % 30.00 (as paraquat anion)
# [10] = 1% active, no salt, adjusted pH 2
# [11] = 1% isoxaflutole unadjusted pH 7.0, no salt
# [12] = 1% active and glyphosate pH ~5, Salt % 15.00 (as glyphosate acid equivalent)
# [13] = 1% active and glyphosate pH ~5, Salt % 45.00 (as glyphosate acid equivalent)
# [14] = 1% mesotrione not adjusted pH 5 (pH ~4.5), no salt
smiles,measurement,setting,value
"CS(=O)(=O)c1cc(C(F)(F)F)ccc1C(=O)c1cnoc1C1CC1 [Isoxaflutole, 5-cyclopropyl-4-(2-methylsulfonyl-4-trifluoromethyl)benzoylisoxazole]",45° C.,[1]; [4],0.94
same,% decomposition,[1]; [4],11.30%
same,Start,[1]; [4],1.06
same,45° C.,[1]; [5],0.94
same,% decomposition,[1]; [5],9.50%
same,Start,[1]; [5],1.04
same,45° C.,[1]; [6],0.87
same,% decomposition,[1]; [6],16.50%
same,Start,[1]; [6],1.04
same,45° C.,[1]; [7],0.99
same,% decomposition,[1]; [7],6.00%
same,Start,[1]; [7],1.05
same,45° C.,[1]; [8],0.90
same,% decomposition,[1]; [8],12.00%
same,Start,[1]; [8],1.02
same,45° C.,[1]; [9],0.80
same,% decomposition,[1]; [9],7.00%
same,Start,[1]; [9],0.86
same,45° C.,[1]; [10],1.02
same,% decomposition,[1]; [10],nil
same,Start,[1]; [10],0.98
same,45° C.,[1]; [11],0.85
same,% decomposition,[1]; [11],17.00%
same,Start,[1]; [11],1.06
"CS(=O)(=O)c1ccc(C(=O)C2C(=O)CCCC2=O)c([N+](=O)[O-])c1 [Mesotrione, 2-(4-methylsulphonyl-2-nitrobenzoyl)cyclohexane-1,3-dione]",45° C.,[1]; [4],0.96
same,% decomposition,[1]; [4],9.43%
same,Start,[1]; [4],1.06
same,45° C.,[1]; [5],0.93
same,% decomposition,[1]; [5],13.08%
same,Start,[1]; [5],1.07
same,45° C.,[1]; [6],0.86
same,% decomposition,[1]; [6],21.10%
same,Start,[1]; [6],1.09
same,45° C.,[1]; [12],0.86
same,% decomposition,[1]; [12],18.1%
same,Start,[1]; [12],1.05
same,45° C.,[1]; [13],0.80
same,% decomposition,[1]; [13],14.9%
same,Start,[1]; [13],0.94
same,45° C.,[1]; [7],0.96
same,% decomposition,[1]; [7],12.73%
same,Start,[1]; [7],1.10
same,45° C.,[1]; [8],0.98
same,% decomposition,[1]; [8],12.50%
same,Start,[1]; [8],1.12
same,45° C.,[1]; [9],0.90
same,% decomposition,[1]; [9],18.18%
same,Start,[1]; [9],1.10
same,45° C.,[1]; [10],0.96
same,% decomposition,[1]; [10],10.28%
same,Start,[1]; [10],1.07
same,45° C.,[1]; [14],0.83
same,% decomposition,[1]; [14],34.65%
same,Start,[1]; [14],1.27
same,solubility,"[2]; pH 4.8, 20° C.",2.2 g/L
same,solubility,"[2]; pH 6.9, 20° C.",15 g/L
same,solubility,"[2]; pH 9, 20° C.",22 g/L
same,Concentration of mesotrione in solution,[3]; Ammonium sulphate solution 100 g per litre,625 ppm
same,Concentration of mesotrione in solution,[3]; Ammonium sulphate solution 200 g per litre,504 ppm
same,Concentration of mesotrione in solution,[3]; Ammonium sulphate solution 300 g per litre,391 ppm
same,Concentration of mesotrione in solution,[3]; Ammonium sulphate solution 400 g per litre,271 ppm
same,Concentration of mesotrione in solution,[3]; Ammonium sulphate solution 500 g per litre,263 ppm
same,Concentration of mesotrione in solution,[3]; Potassium glyphosate 100 g per litre,1220 ppm
same,Concentration of mesotrione in solution,[3]; Potassium glyphosate 200 g per litre,700 ppm
same,Concentration of mesotrione in solution,[3]; Potassium glyphosate 300 g per litre,480 ppm
same,Concentration of mesotrione in solution,[3]; Potassium glyphosate 360 g per litre,290 ppm
same,Concentration of mesotrione in solution,[3]; Potassium glyphosate 400 g per litre,210 ppm
same,Concentration of mesotrione in solution,[3]; Potassium glyphosate 500 g per litre,180 ppm
same,Concentration of mesotrione in solution,[3]; Potassium glyphosate 600 g per litre,170 ppm
same,Concentration of mesotrione in solution,[3]; Potassium glyphosate 640 g per litre,160 ppm
same,Concentration of mesotrione in solution,[3]; Sodium Chloride 50 g per litre,605 ppm
same,Concentration of mesotrione in solution,[3]; Sodium Chloride 105 g per litre,549 ppm
same,Concentration of mesotrione in solution,[3]; Sodium Chloride 165 g per litre,510 ppm
same,Concentration of mesotrione in solution,[3]; Sodium Chloride 230 g per litre,479 ppm
same,Concentration of mesotrione in solution,[3]; Sodium Chloride 300 g per litre,443 ppm
same,Concentration of mesotrione in solution,[3]; electrolyte: None,4700 ppm
